pIC50: −log10 of the molar value. Active and inactive are the calls of the source. The rule behind the calls is not given here.

Consider one molecule from ChEMBL document CHEMBL1150959 (J Nat Prod, 1998).

For assay [1], the target named is Prostaglandin G/H synthase 1 (Bos taurus) (UniProt O62698). The assay can be described thus: Inhibition of COX1-catalyzed prostaglandin biosynthesis 10 mins of preincubation.
For assay [2] the target is unchanged. As to the kind of experiment: Inhibition of COX1-catalyzed prostaglandin biosynthesis at 200 ug/ml without preincubation. As to conditions: TDE = time-dependent effect.
Assay [3] has the same target. As to the kind of experiment: Inhibition of COX1-catalyzed prostaglandin biosynthesis at 100 ug/ml without preincubation.
Assay [4] is described as follows: Ratio of IC50 for COX2 to IC50 for COX1.

Chain of Prostaglandin G/H synthase 1 (Bos taurus) (O62698 whole entry, looked up): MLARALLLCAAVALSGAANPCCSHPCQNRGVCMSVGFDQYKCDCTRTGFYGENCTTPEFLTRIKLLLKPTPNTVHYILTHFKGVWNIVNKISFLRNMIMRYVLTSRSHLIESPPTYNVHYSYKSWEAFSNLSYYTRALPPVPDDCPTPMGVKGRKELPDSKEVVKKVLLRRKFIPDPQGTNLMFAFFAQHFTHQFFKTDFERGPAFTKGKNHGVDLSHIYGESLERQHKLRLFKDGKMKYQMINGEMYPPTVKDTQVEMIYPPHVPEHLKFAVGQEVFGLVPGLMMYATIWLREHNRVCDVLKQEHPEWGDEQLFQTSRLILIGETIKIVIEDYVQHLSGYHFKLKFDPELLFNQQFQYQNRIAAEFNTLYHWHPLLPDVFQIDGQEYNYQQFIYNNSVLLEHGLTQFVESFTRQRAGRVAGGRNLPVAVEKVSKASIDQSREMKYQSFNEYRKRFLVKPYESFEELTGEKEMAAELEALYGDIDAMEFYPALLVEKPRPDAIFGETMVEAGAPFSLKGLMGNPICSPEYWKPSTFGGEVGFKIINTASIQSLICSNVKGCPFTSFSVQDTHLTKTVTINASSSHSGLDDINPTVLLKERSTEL

Usually pIC50 stands for the negative decadic logarithm of the IC50, by convention in mol/L. A lower pIC50 goes with a large IC50. The molecule `C[C@H]1[C@H](C)CC[C@]2(C(=O)O)CC[C@]3(C)C(=CC[C@@H]4[C@@]5(C)CC[C@H](O)C(C)(C)[C@@H]5CC[C@]43C)[C@H]12` [URSOLIC ACID] had a pIC50 in assay [1] of 3.68. Besides, the Activity result in assay [2] was “tde”. In addition, the outcome in assay [3] was Active. The Ratio IC50 in assay [4] stood at 0.6.
